Measurements as given in US20090226527A1, “Particulate-stabilized injectable pharmacutical compositions of posaconazole” (priority 2004, published 2009).
In brackets after ≈: the same amount, converted by molar mass.

System: infectious agents (strains tested)
Assay: microbe, parasite or virus in culture
Type: cell-based

Compound: CCC(C)n1ncn(-c2ccc(N3CCN(c4ccc(OCC5COC(Cn6cncn6)(c6ccc(Cl)cc6Cl)O5)cc4)CC3)cc2)c1=O (centres unmarked) [Itraconazole]
- MIC (Hansenula anomala, Pichia anomala, read-out: Geometric Mean MIC): 0.375 µg/mL (≈ 0.531 µM)
- MIC (Hansenula anomala, Pichia anomala, read-out: MIC[90]): 1 µg/mL (≈ 1.42 µM)
- MIC (Histoplasma capsulatum, read-out: Geometric Mean MIC, Histoplasma capsulatum): 0.018 µg/mL (≈ 0.0255 µM)
- MIC (Histoplasma capsulatum, read-out: MIC[90], Histoplasma capsulatum): 0.063 µg/mL (≈ 0.0893 µM)
- MIC (Kluyveromyces marxianus, Candida kefyr, read-out: Geometric Mean MIC): 0.188 µg/mL (≈ 0.266 µM)
- MIC (Kluyveromyces marxianus, Candida kefyr, read-out: MIC[90]): 0.5 µg/mL (≈ 0.709 µM)
- MIC (Kluyveromyces marxianus, read-out: Geometric Mean MIC): 0.07 µg/mL (≈ 0.0992 µM)
- MIC (Kluyveromyces marxianus, read-out: MIC[90]): 0.031 to 0.125 µg/mL (≈ 0.0439 to 0.177 µM)
- MIC (Lodderomyces parapsilosis, Candida parapsilosis, read-out: Geometric Mean MIC): 0.161 µg/mL (≈ 0.228 µM)
- MIC (Lodderomyces parapsilosis, Candida parapsilosis, read-out: MIC[90]): 0.5 µg/mL (≈ 0.709 µM)
- MIC (Meyerozyma guilliermondii, Candida guilliermondii, read-out: Geometric Mean MIC): 0.479 µg/mL (≈ 0.679 µM)
- MIC (Meyerozyma guilliermondii, Candida guilliermondii, read-out: MIC[90]): 1 µg/mL (≈ 1.42 µM)
- MIC (Microsporum audouinii, read-out: Geometric Mean MIC): 0.125 µg/mL (≈ 0.177 µM)
- MIC (Microsporum audouinii, read-out: MIC[90]): 0.125 µg/mL (≈ 0.177 µM)
- MIC (Microsporum canis, read-out: Geometric Mean MIC): 0.041 µg/mL (≈ 0.0581 µM)
- MIC (Microsporum canis, read-out: MIC[90]): 2 µg/mL (≈ 2.83 µM)
- MIC (Mucor spp, read-out: Geometric Mean MIC): 2.38 µg/mL (≈ 3.37 µM)
- MIC (Mucor spp, read-out: MIC[90]): 16 µg/mL (≈ 22.7 µM)
- MIC (Nakaseomyces glabratus, Candida glabrata, read-out: Geometric Mean MIC): 0.853 µg/mL (≈ 1.21 µM)
- MIC (Nakaseomyces glabratus, Candida glabrata, read-out: MIC[90]): 4 µg/mL (≈ 5.67 µM)
- MIC (Nannizzia fulva, Microsporum fulvum, read-out: Geometric Mean MIC): 4 µg/mL (≈ 5.67 µM)
- MIC (Nannizzia fulva, Microsporum fulvum, read-out: MIC[90]): 4 µg/mL (≈ 5.67 µM)
- MIC (Nannizzia gypsea, Microsporum gypseum, read-out: Geometric Mean MIC): 0.044 µg/mL (≈ 0.0624 µM)
- MIC (Nannizzia gypsea, Microsporum gypseum, read-out: MIC[90]): 0.016 to 0.5 µg/mL (≈ 0.0227 to 0.709 µM)
- MIC (Nannizzia persicolor, Microsporum persicolor, read-out: Geometric Mean MIC): 0.5 µg/mL (≈ 0.709 µM)
- MIC (Nannizzia persicolor, Microsporum persicolor, read-out: MIC[90]): 0.5 µg/mL (≈ 0.709 µM)
- MIC (Paecilomyces spp, read-out: Geometric Mean MIC): 0.64 µg/mL (≈ 0.907 µM)
- MIC (Paecilomyces spp, read-out: MIC[90]): 2 µg/mL (≈ 2.83 µM)
- MIC (Papiliotrema laurentii, Cryptococcus laurentii, read-out: Geometric Mean MIC): 0.397 µg/mL (≈ 0.563 µM)
- MIC (Papiliotrema laurentii, Cryptococcus laurentii, read-out: MIC[90]): 0.25 to 0.5 µg/mL (≈ 0.354 to 0.709 µM)
- MIC (Paracoccidioides brasiliensis, read-out: Geometric Mean MIC, Paracoccidioides brasiliensis): 0.025 µg/mL (≈ 0.0354 µM)
- MIC (Paracoccidioides brasiliensis, read-out: MIC[90], Paracoccidioides brasiliensis): 0.063 µg/mL (≈ 0.0893 µM)
- MIC (Penicillium spp, read-out: Geometric Mean MIC): 0.853 µg/mL (≈ 1.21 µM)
- MIC (Penicillium spp, read-out: MIC[90]): 2 µg/mL (≈ 2.83 µM)
- MIC (Pichia kudriavzevii, Candida krusei, read-out: Geometric Mean MIC): 0.576 µg/mL (≈ 0.816 µM)
- MIC (Pichia kudriavzevii, Candida krusei, read-out: MIC[90]): 1 µg/mL (≈ 1.42 µM)
- MIC (Pleurothecium obovoideum, Ramichloridium obovoideum, read-out: Geometric Mean MIC): 0.016 µg/mL (≈ 0.0227 µM)
- MIC (Pleurothecium obovoideum, Ramichloridium obovoideum, read-out: MIC[90]): 0.016 µg/mL (≈ 0.0227 µM)
- MIC (Rhizomucor spp, read-out: Geometric Mean MIC): 0.016 µg/mL (≈ 0.0227 µM)
- MIC (Rhizomucor spp, read-out: MIC[90]): 0.016 µg/mL (≈ 0.0227 µM)
- MIC (Rhizopus spp, read-out: Geometric Mean MIC): 3.28 µg/mL (≈ 4.65 µM)
- MIC (Rhizopus spp, read-out: MIC[90]): 16 µg/mL (≈ 22.7 µM)
- MIC (Saccharomyces cerevisiae, read-out: Geometric Mean MIC): 0.418 µg/mL (≈ 0.592 µM)
- MIC (Saccharomyces cerevisiae, read-out: MIC[90]): 2 µg/mL (≈ 2.83 µM)
- MIC (Scedosporium apiospermum, read-out: Geometric Mean MIC): 1.34 µg/mL (≈ 1.9 µM)
- MIC (Scedosporium apiospermum, read-out: MIC[90]): 32 µg/mL (≈ 45.3 µM)
- MIC (Scedosporium boydii, Pseudallescheria boydii, read-out: Geometric Mean MIC): 0.506 µg/mL (≈ 0.717 µM)
- MIC (Scedosporium boydii, Pseudallescheria boydii, read-out: MIC[90]): 1 µg/mL (≈ 1.42 µM)
- MIC (Sporothrix schenckii, read-out: Geometric Mean MIC): 0.302 µg/mL (≈ 0.428 µM)
- MIC (Sporothrix schenckii, read-out: MIC[90]): 0.5 µg/mL (≈ 0.709 µM)
- MIC (Trichophyton mentagrophytes, read-out: Geometric Mean MIC): 0.041 µg/mL (≈ 0.0581 µM)
- MIC (Trichophyton mentagrophytes, read-out: MIC[90]): 0.25 µg/mL (≈ 0.354 µM)
- MIC (Trichophyton rubrum, Trichophyton raubitschekii, read-out: Geometric Mean MIC): 0.25 µg/mL (≈ 0.354 µM)
- MIC (Trichophyton rubrum, Trichophyton raubitschekii, read-out: MIC[90]): 0.25 µg/mL (≈ 0.354 µM)
- MIC (Trichophyton rubrum, read-out: Geometric Mean MIC): 0.074 µg/mL (≈ 0.105 µM)
- MIC (Trichophyton rubrum, read-out: MIC[90]): 0.25 µg/mL (≈ 0.354 µM)
- MIC (Trichophyton soudanense, read-out: Geometric Mean MIC): 4 µg/mL (≈ 5.67 µM)
- MIC (Trichophyton soudanense, read-out: MIC[90]): 4 µg/mL (≈ 5.67 µM)
- MIC (Trichophyton tonsurans, read-out: Geometric Mean MIC): 0.036 µg/mL (≈ 0.051 µM)
- MIC (Trichophyton tonsurans, read-out: MIC[90]): 0.063 µg/mL (≈ 0.0893 µM)
- MIC (Trichosporon spp, read-out: Geometric Mean MIC): 1.12 µg/mL (≈ 1.59 µM)
- MIC (Trichosporon spp, read-out: MIC[90]): 0.5 to 2 µg/mL (≈ 0.709 to 2.83 µM)
